Measured values reported in patent US9321774B2, “Pyrrolobenzodiazepines” (MEDIMMUNE LIMITED, priority 2012, dated 2016).
≈ marks a conversion by molar mass, not a printed value. Where two headings read alike, the source gives them in different places.

What was measured:
Assay in all cases: CLSI broth microplate assay, MIC
Assay type in all cases: cell-based
[1] = system: E. faecalis VRE1; conditions: Enterococcus faecalis
[2] = system: MRSA strain BB568; conditions: Staphylococcus aureus, read-out: Minimum inhibitory concentration (MIC mg/L) BB568
[3] = system: MRSA strain EMRSA-16; conditions: Staphylococcus aureus, read-out: Minimum inhibitory concentration (MIC mg/L) EMRSA-16
[4] = system: MRSA strain EMRSA-15; conditions: Staphylococcus aureus, read-out: Minimum inhibitory concentration (MIC mg/L) EMRSA-15
[5] = system: E. faecium VRE10; conditions: Enterococcus faecium
[6] = system: S. aureus VISA strain Mu50; conditions: Staphylococcus aureus, read-out: Minimum inhibitory concentration (MIC mg/L) Mu50
[7] = system: community-associated MRSA isolate USA300; conditions: Staphylococcus aureus, read-out: Minimum inhibitory concentration (MIC mg/L) USA300
[8] = VRE1, read-out: Minimum inhibitory concentration (MIC mg/L) VRE1
[9] = VRE10, read-out: Minimum inhibitory concentration (MIC mg/L) VRE10
[10] = EMRSA-15, Mueller-Hinton broth, 37° C.
[11] = VRE10, Mueller-Hinton broth, 37° C., read-out: Minimum inhibitory concentration (MIC mg/L) VRE10
[12] = Mu50, Mueller-Hinton broth, 37° C.
[13] = VRE1, Mueller-Hinton broth, 37° C., read-out: Minimum inhibitory concentration (MIC mg/L) VRE1
[14] = BB568, Mueller-Hinton broth, 37° C.
[15] = EMRSA-16, Mueller-Hinton broth, 37° C.

SMILES: COC(=O)c1ccc(-c2ccc(NC(=O)CCCOc3cc4c(cc3OC)C(=O)N3CCC[C@H]3C=N4)cc2)s1 [Compound 18, (S)-methyl 5-(4-(4-((7-methoxy-5-oxo-2,3,5,11a-tetrahydro-1H-benzo[e]pyrrolo[1,2-a][1,4]diazepin-8-yl)oxy)butanamido)phenyl)thiophene-2-carboxylate, reference compound]
- MIC [1, 8]: > 32 mg/L
- MIC [2]: > 32 mg/L
- MIC [3]: > 32 mg/L
- MIC [4]: > 32 mg/L
- MIC [5, 9]: 16 mg/L (≈ 29.2 µM)
- MIC [6]: > 32 mg/L
- MIC [7]: 32 mg/L (≈ 58.4 µM)

SMILES: COc1cc2c(cc1OCCCC(=O)Nc1cc(C(=O)Nc3ccc4occc4c3)n(C)c1)N=C[C@@H]1CCCN1C2=O [Compound 26, (S)—N-(benzofuran-5-yl)-4-(4-((7-methoxy-5-oxo-2,3,5,11a-tetrahydro-1H-benzo[e]pyrrolo[1,2-a][1,4]diazepin-8-yl)oxy)butanamido)-1-methyl-1H-pyrrole-2-carboxamide]
- MIC [1, 8]: 0.06 to 0.125 mg/L (≈ 0.105 to 0.219 µM)
- MIC [2]: 0.125 mg/L (≈ 0.219 µM)
- MIC [3]: 0.125 mg/L (≈ 0.219 µM)
- MIC [4, 10]: 0.06 mg/L (≈ 0.105 µM)
- MIC [5, 11]: 0.06 mg/L (≈ 0.105 µM)
- MIC [6, 12]: 0.06 mg/L (≈ 0.105 µM)
- MIC [7]: 0.125 mg/L (≈ 0.219 µM)

SMILES: COc1cc2c(cc1OCCCC(=O)Nc1cc(C(=O)Nc3ccc4sccc4c3)n(C)c1)N=C[C@@H]1CCCN1C2=O [Compound 27, (S)—N-(benzo[b]thiophen-5-yl)-4-(4-((7-methoxy-5-oxo-2,3,5,11a-tetrahydro-1H-benzo[e]pyrrolo[1,2-a][1,4]diazepin-8-yl)oxy)butanamido)-1-methyl-1H-pyrrole-2-carboxamide]
- MIC [1, 13]: 0.125 mg/L (≈ 0.213 µM)
- MIC [2, 14]: 0.125 mg/L (≈ 0.213 µM)
- MIC [3, 15]: 0.125 mg/L (≈ 0.213 µM)
- MIC [4, 10]: 0.03 mg/L (≈ 0.0512 µM)
- MIC [5, 11]: 0.03 mg/L (≈ 0.0512 µM)
- MIC [6, 12]: < 0.03 mg/L
- MIC [7]: 0.06 to 0.125 mg/L (≈ 0.102 to 0.213 µM)

SMILES: COC(=O)c1cc2cc(NC(=O)c3cc(NC(=O)CCCOc4cc5c(cc4OC)C(=O)N4CCC[C@H]4C=N5)cn3C)ccc2s1 [Compound 28, (S)-methyl 5-(4-(4-((7-methoxy-5-oxo-2,3,5,11a-tetrahydro-1H-benzo[e]pyrrolo[1,2-a][1,4]diazepin-8-yl)oxy)butanamido)-1-methyl-1H-pyrrole-2-carboxamido)benzo[b]thiophene-2-carboxylate]
- MIC [1, 8]: 0.06 mg/L (≈ 0.0932 µM)
- MIC [2]: 0.125 mg/L (≈ 0.194 µM)
- MIC [3]: 0.125 mg/L (≈ 0.194 µM)
- MIC [4]: 0.06 mg/L (≈ 0.0932 µM)
- MIC [5, 9]: 0.06 mg/L (≈ 0.0932 µM)
- MIC [7]: 0.06 mg/L (≈ 0.0932 µM)

SMILES: COc1cc2c(cc1OCCCC(=O)Nc1cc(C(=O)Nc3ccc(N4CCOCC4)cc3)n(C)c1)N=C[C@@H]1CCCN1C2=O [Compound 30, (S)-4-(4-((7-methoxy-5-oxo-2,3,5,11a-tetrahydro-1H-benzo[e]pyrrolo[1,2-a][1,4]diazepin-8-yl)oxy)butanamido)-1-methyl-N-(4-morpholinophenyl)-1H-pyrrole-2-carboxamide]
- MIC [1, 13]: 1 mg/L (≈ 1.63 µM)
- MIC [2, 14]: 2 mg/L (≈ 3.25 µM)
- MIC [3, 15]: 2 mg/L (≈ 3.25 µM)
- MIC [4, 10]: 0.5 mg/L (≈ 0.813 µM)
- MIC [5, 11]: 0.5 mg/L (≈ 0.813 µM)
- MIC [7]: 0.5 mg/L (≈ 0.813 µM)

SMILES: COc1cc2c(cc1OCCCC(=O)Nc1cc(C(=O)Nc3ccc(N4CCOCC4)nc3)n(C)c1)N=C[C@@H]1CCCN1C2=O [Compound 31, (S)-4-(4-((7-methoxy-5-oxo-2,3,5,11a-tetrahydro-1H-benzo[e]pyrrolo[1,2-a][1,4]diazepin-8-yl)oxy)butanamido)-1-methyl-N-(6-morpholinopyridin-3-yl)-1H-pyrrole-2-carboxamide]
- MIC [1, 8]: 1 mg/L (≈ 1.62 µM)
- MIC [2]: 4 mg/L (≈ 6.5 µM)
- MIC [3]: 4 mg/L (≈ 6.5 µM)
- MIC [4]: 0.5 mg/L (≈ 0.812 µM)
- MIC [5, 9]: 0.5 mg/L (≈ 0.812 µM)
- MIC [7]: 1 mg/L (≈ 1.62 µM)

SMILES: COC(=O)c1cc2cc(NC(=O)c3nc(NC(=O)CCCOc4cc5c(cc4OC)C(=O)N4CCC[C@H]4C=N5)cn3C)ccc2s1 [Compound 35, (S)-methyl 5-(4-(4-((7-methoxy-5-oxo-2,3,5,11a-tetrahydro-1H-benzo[e]pyrrolo[1,2-a][1,4]diazepin-8-yl)oxy)butanamido)-1-methyl-1H-imidazole-2-carboxamido)benzo[b]thiophene-2-carboxylate]
- MIC [1, 8]: 0.06 mg/L (≈ 0.0931 µM)
- MIC [2]: 0.06 mg/L (≈ 0.0931 µM)
- MIC [3]: 0.06 mg/L (≈ 0.0931 µM)
- MIC [4]: 0.06 mg/L (≈ 0.0931 µM)
- MIC [5, 9]: 0.06 mg/L (≈ 0.0931 µM)
- MIC [7]: 0.06 mg/L (≈ 0.0931 µM)

SMILES: COc1cc2c(cc1OCCCC(=O)Nc1cn(C)c(C(=O)Nc3ccc(N4CCOCC4)cc3)n1)N=C[C@@H]1CCCN1C2=O [Compound 37, (S)-4-(4-((7-methoxy-5-oxo-2,3,5,11a-tetrahydro-1H-benzo[e]pyrrolo[1,2-a][1,4]diazepin-8-yl)oxy)butanamido)-1-methyl-N-(4-morpholinophenyl)-1H-imidazole-2-carboxamide]
- MIC [1, 8]: 0.25 mg/L (≈ 0.406 µM)
- MIC [2]: 0.5 mg/L (≈ 0.812 µM)
- MIC [3]: 0.5 mg/L (≈ 0.812 µM)
- MIC [4]: 0.125 mg/L (≈ 0.203 µM)
- MIC [5, 9]: 0.125 mg/L (≈ 0.203 µM)
- MIC [7]: 0.125 mg/L (≈ 0.203 µM)

SMILES: COc1cc2c(cc1OCCCC(=O)Nc1cn(C)c(C(=O)Nc3ccc(OCCN4CCOCC4)cc3)n1)N=C[C@@H]1CCCN1C2=O [Compound 39, (S)-4-(4-((7-methoxy-5-oxo-2,3,5,11a-tetrahydro-1H-benzo[e]pyrrolo[1,2-a][1,4]diazepin-8-yl)oxy)butanamido)-1-methyl-N-(4-(2-morpholinoethoxyl)phenyl)-1H-imidazole-2-carboxamide]
- MIC [1, 13]: 0.125 mg/L (≈ 0.189 µM)
- MIC [2, 14]: 0.25 to 0.5 mg/L (≈ 0.379 to 0.758 µM)
- MIC [3, 15]: 0.25 mg/L (≈ 0.379 µM)
- MIC [4, 10]: 0.25 mg/L (≈ 0.379 µM)
- MIC [5, 11]: 0.5 mg/L (≈ 0.758 µM)
- MIC [6, 12]: 0.125 mg/L (≈ 0.189 µM)
- MIC [7]: 0.5 mg/L (≈ 0.758 µM)

SMILES: COc1cc2c(cc1OCCCC(=O)Nc1cn(C)c(C(=O)Nc3ccc(N4CCOCC4)nc3)n1)N=C[C@@H]1CCCN1C2=O [Compound 40, (S)-4-(4-((7-methoxy-5-oxo-2,3,5,11a-tetrahydro-1H-benzo[e]pyrrolo[1,2-a][1,4]diazepin-8-yl)oxy)butanamido)-1-methyl-N-(6-morpholinopyridin-3-yl)-1H-imidazole-2-carboxamide]
- MIC [1, 8]: 0.25 mg/L (≈ 0.405 µM)
- MIC [2]: 0.5 mg/L (≈ 0.811 µM)
- MIC [3]: 0.5 mg/L (≈ 0.811 µM)
- MIC [4]: 0.125 mg/L (≈ 0.203 µM)
- MIC [5, 9]: 0.125 mg/L (≈ 0.203 µM)
- MIC [7]: 0.125 mg/L (≈ 0.203 µM)

SMILES: COc1cc2c(cc1OCCCC(=O)Nc1ccc(-c3cc(C(=O)Nc4ccc(N5CCOCC5)cc4)n(C)c3)cc1)N=C[C@@H]1CCCN1C2=O [Compound 49, (S)-4-(4-(4-((7-methoxy-5-oxo-2,3,5,11a-tetrahydro-1H-benzo[e]pyrrolo[1,2-a][1,4]diazepin-8-yl)oxy)butanamido)phenyl)-1-methyl-N-(4-morpholinophenyl)-1H-pyrrole-2-carboxamide]
- MIC [1, 8]: 0.5 mg/L (≈ 0.724 µM)
- MIC [2]: 2 mg/L (≈ 2.9 µM)
- MIC [3]: 2 mg/L (≈ 2.9 µM)
- MIC [4]: 2 mg/L (≈ 2.9 µM)
- MIC [5, 9]: 0.5 to 1 mg/L (≈ 0.724 to 1.45 µM)
- MIC [6]: 1 mg/L (≈ 1.45 µM)
- MIC [7]: 2 mg/L (≈ 2.9 µM)

SMILES: COc1cc2c(cc1OCCCC(=O)Nc1ccc(-c3cc(C(=O)Nc4ccc(OCCN5CCOCC5)cc4)n(C)c3)cc1)N=C[C@@H]1CCCN1C2=O [Compound 51, (S)-4-(4-(4-((7-methoxy-5-oxo-2,3,5,11a-tetrahydro-1H-benzo[e]pyrrolo[1,2-a][1,4]diazepin-8-yl)oxy)butanamido)phenyl)-1-methyl-N-(4-(2-morpholinoethoxyl)phenyl)-1H-pyrrole-2-carboxamide]
- MIC [1, 13]: 0.5 mg/L (≈ 0.68 µM)
- MIC [2, 14]: 2 mg/L (≈ 2.72 µM)
- MIC [3, 15]: 2 mg/L (≈ 2.72 µM)
- MIC [4, 10]: 2 mg/L (≈ 2.72 µM)
- MIC [5, 11]: 1 mg/L (≈ 1.36 µM)
- MIC [6, 12]: 1 mg/L (≈ 1.36 µM)
- MIC [7]: 2 mg/L (≈ 2.72 µM)

SMILES: COc1cc2c(cc1OCCCC(=O)Nc1ccc(-c3cc(C(=O)NCc4ccc(OCCN5CCOCC5)cc4)n(C)c3)cc1)N=C[C@@H]1CCCN1C2=O [Compound 52, (S)-4-(4-(4-((7-methoxy-5-oxo-2,3,5,11a-tetrahydro-1H-benzo[e]pyrrolo[1,2-a][1,4]diazepin-8-yl)oxy)butanamido)phenyl)-1-methyl-N-(4-(2-morpholinoethoxyl)benzyl)-1H-pyrrole-2-carboxamide]
- MIC [1, 8]: 2 mg/L (≈ 2.67 µM)
- MIC [2]: 4 mg/L (≈ 5.34 µM)
- MIC [3]: 1 to 2 mg/L (≈ 1.34 to 2.67 µM)
- MIC [4]: 4 mg/L (≈ 5.34 µM)
- MIC [5, 9]: 1 mg/L (≈ 1.34 µM)
- MIC [6]: 2 mg/L (≈ 2.67 µM)
- MIC [7]: 4 mg/L (≈ 5.34 µM)

SMILES: COc1cc2c(cc1OCCCC(=O)Nc1ccc(-c3cc(C(=O)Nc4ccc(N5CCOCC5)nc4)n(C)c3)cc1)N=C[C@@H]1CCCN1C2=O [Compound 53, (S)-4-(4-(4-((7-methoxy-5-oxo-2,3,5,11a-tetrahydro-1H-benzo[e]pyrrolo[1,2-a][1,4]diazepin-8-yl)oxy)butanamido)phenyl)-1-methyl-N-(6-morpholinopyridin-3-yl)-1H-pyrrole-2-carboxamide]
- MIC [1, 8]: 1 mg/L (≈ 1.45 µM)
- MIC [2]: 4 mg/L (≈ 5.78 µM)
- MIC [3]: 2 to 4 mg/L (≈ 2.89 to 5.78 µM)
- MIC [4]: 1 mg/L (≈ 1.45 µM)
- MIC [5, 9]: 0.5 mg/L (≈ 0.723 µM)
- MIC [6]: 2 mg/L (≈ 2.89 µM)
- MIC [7]: 4 mg/L (≈ 5.78 µM)

SMILES: COC(=O)c1cc(NC(=O)c2cc(-c3ccc(NC(=O)CCCOc4cc5c(cc4OC)C(=O)N4CCC[C@H]4C=N5)cc3)co2)cn1C [Compound 54, (S)-methyl 4-(4-(4-(4-((7-methoxy-5-oxo-2,3,5,11a-tetrahydro-1H-benzo[e]pyrrolo[1,2-a][1,4]diazepin-8-yl)oxy)butanamido)phenyl)furan-2-carboxamido)-1-methyl-1H-pyrrole-2-carboxylate]
- MIC [1, 13]: 0.06 mg/L (≈ 0.0918 µM)
- MIC [2, 14]: 0.125 mg/L (≈ 0.191 µM)
- MIC [3, 15]: 0.06 mg/L (≈ 0.0918 µM)
- MIC [4, 10]: < 0.03 mg/L
- MIC [5, 11]: < 0.03 mg/L
- MIC [6, 12]: 0.03 mg/L (≈ 0.0459 µM)
- MIC [7]: 0.06 mg/L (≈ 0.0918 µM)
